# Results reported in patent publication US8629102B2, “3-hydroxyisothiazole 1-oxide derivatives” (Mochida Pharmaceutical Co., Ltd., priority 2011, dated 2014).
# Target: T1, GPR40 of human origin (Homo sapiens, UniProt O14842)
# T1 construct: expressed in transfected cells
# Experiment: Agonist action on GPR40 of human origin (intracellular Ca2+ change)
# Format: cell-based
# Conditions: CHO cell strain stably expressing GPR40 of human origin; change in Ca2+ concentration, fluorescent calcium indicator
# Method in brief: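 CHO cells stably expressing human GPR40, cultured overnight, then loaded 1 h with Calcium 4 dye plus probenecid in HEPES-buffered HBSS. Compound added in 20 mM HEPES-HBSS; intracellular Ca2+ change read by fluorescence, EC50 from dose-response of fluorescence change.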
# T1 sequence (O14842 whole entry): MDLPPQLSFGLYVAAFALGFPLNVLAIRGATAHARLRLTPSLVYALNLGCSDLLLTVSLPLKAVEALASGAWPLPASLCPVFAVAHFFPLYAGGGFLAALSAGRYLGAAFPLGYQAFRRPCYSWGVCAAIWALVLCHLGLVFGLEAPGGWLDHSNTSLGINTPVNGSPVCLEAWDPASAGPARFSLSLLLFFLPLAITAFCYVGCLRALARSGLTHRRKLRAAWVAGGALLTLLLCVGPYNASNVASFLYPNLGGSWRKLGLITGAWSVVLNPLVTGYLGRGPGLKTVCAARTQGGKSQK
row,EC50 [µM],Structure (SMILES)
1,< 0.3,"[O-][s+]1nc(O)cc1-c1ccc(O[C@@H]2CCc3c(-c4ccc(OCC5CC5)nc4)cccc32)cc1 (stereo partly drawn) [Example 78, 5-(4-(((R)-4-(6-(cyclopropylmethoxy)pyridin-3-yl)-2,3-dihydro-1H-inden-1-yl)oxy)phenyl)-3-hydroxyisothiazole 1-oxide]"
2,< 0.3,"[O-][s+]1nc(O)cc1-c1ccc(O[C@@H]2CCc3c(-c4cccnc4Cl)cccc32)cc1 (single isomer, unassigned) [Example 75]"
3,< 0.3,"N#Cc1ccc(-c2cccc3c2CC[C@H]3Oc2ccc(-c3cc(O)n[s+]3[O-])cc2)cc1 (stereo partly drawn) [Example 156, 4-((1R)-1-(4-(3-hydroxy-1-oxidoisothiazol-5-yl)phenoxy)-2,3-dihydro-1H-inden-4-yl)benzonitrile]"
4,< 0.3,"[O-][s+]1nc(O)cc1-c1ccc(O[C@@H]2CCc3c(-c4cc(F)ccc4F)cccc32)cc1 (stereo partly drawn) [Example 46, 5-(4-(((R)-4-(2,5-difluorophenyl)-2,3-dihydro-1H-inden-1-yl)oxy)phenyl)-3-hydroxyisothiazole 1-oxide]"
5,< 0.3,"Cc1cc(OCCCS(C)(=O)=O)cc(C)c1-c1cccc(CNc2ccc(-c3cc(O)n[s+]3[O-])cc2)c1 (stereo not drawn) [Example 2, 5-(4-(((2′,6′-dimethyl-4′-(3-(methylsulfonyl)propoxy)-[1,1′-biphenyl]-3-yl)methyl)amino)phenyl)-3-hydroxyisothiazole 1-oxide]"
6,< 0.3,"CC(C)Cc1ccc(-c2cccc3c2CC[C@H]3Oc2ccc(-c3cc(O)n[s+]3[O-])cc2)cc1 (stereo partly drawn) [Example 28, 5-(4-(((R)-4-(4-isobutylphenyl)-2,3-dihydro-1H-inden-1-yl)oxy)phenyl)-3-hydroxyisothiazole 1-oxide]"
7,< 0.3,"N#Cc1ccc(Oc2cccc3c2CC[C@H]3Oc2ccc(-c3cc(O)n[s+]3[O-])cc2)nc1 (stereo partly drawn) [Example 118, 6-(((1R)-1-(4-(3-hydroxy-1-oxidoisothiazol-5-yl)phenoxy)-2,3-dihydro-1H-inden-4-yl)oxy)nicotinonitrile]"
8,< 0.3,"[O-][s+]1nc(O)cc1-c1ccc(O[C@@H]2CCc3c(-c4cccc5ccccc45)cccc32)cc1 (single isomer, unassigned) [Example 35]"
9,< 0.3,"COc1ccc(Oc2cccc3c2CC[C@H]3Oc2ccc(-c3cc(O)n[s+]3[O-])cc2)cc1 (stereo partly drawn) [Example 92, 3-hydroxy-5-(4-(((R)-4-(4-methoxyphenoxy)-2,3-dihydro-1H-inden-1-yl)oxy)phenyl)isothiazole 1-oxide]"
10,< 0.3,"[O-][s+]1nc(O)cc1-c1ccc(O[C@@H]2CCc3c(-c4ccc(Cl)nc4)cccc32)cc1 (stereo partly drawn) [Example 74, 5-(4-(((R)-4-(6-chloropyridin-3-yl)-2,3-dihydro-1H-inden-1-yl)oxy)phenyl)-3-hydroxyisothiazole 1-oxide]"
11,< 0.3,"[O-][s+]1nc(O)cc1-c1ccc(O[C@@H]2CCc3c(Oc4ccc(C(F)(F)F)cc4)cccc32)cc1 (stereo partly drawn) [Example 87, 3-hydroxy-5-(4-(((R)-4-(4-(trifluoromethyl)phenoxy)-2,3-dihydro-1H-inden-1-yl)oxy)phenyl)isothiazole 1-oxide]"
12,< 0.3,"[O-][s+]1nc(O)cc1-c1ccc(OC2CCc3cc(Br)ccc32)cc1 (stereo not drawn) [Example 1, 5-(4-((5-bromo-2,3-dihydro-1H-inden-1-yl)oxy)phenyl)-3-hydroxyisothiazole 1-oxide]"
13,< 0.3,"NC(=O)c1ccc(Oc2cccc3c2CC[C@H]3Oc2ccc(-c3cc(O)n[s+]3[O-])cc2)cc1 (stereo partly drawn) [Example 129, 4-(((1R)-1-(4-(3-hydroxy-1-oxidoisothiazol-5-yl)phenoxy)-2,3-dihydro-1H-inden-4-yl)oxy)benzamide]"
14,0.3 to 3,"CCc1ccc(-c2cccc3c2CC[C@H]3Oc2ccc(-c3cc(O)n[s+]3[O-])cc2)cc1 (stereo partly drawn) [Example 20, 5-(4-(((R)-4-(4-ethylphenyl)-2,3-dihydro-1H-inden-1-yl)oxy)phenyl)-3-hydroxyisothiazole 1-oxide]"
15,< 0.3,"O=C(c1ccc(Oc2cccc3c2CC[C@H]3Oc2ccc(-c3cc(O)n[s+]3[O-])cc2)cc1)N1CCCC1 (stereo partly drawn) [Example 147, (4-(((R)-1-(4-(3-hydroxy-1-oxidoisothiazol-5-yl)phenoxy)-2,3-dihydro-1H-inden-4-yl)oxy)phenyl)(pyrrolidine-1-yl)methanone]"
16,< 0.3,"COc1ccc(Oc2cccc3c2CC[C@H]3Oc2ccc(-c3cc(O)n[s+]3[O-])cc2)c(C)n1 (stereo partly drawn) [Example 106, 3-hydroxy-5-(4-(((R)-4-((6-methoxy-2-methylpyridin-3-yl)oxy)-2,3-dihydro-1H-inden-1-yl)oxy)phenyl)isothiazole 1-oxide]"
17,< 0.3,"Cc1cc(Oc2cccc3c2CC[C@H]3Oc2ccc(-c3cc(O)n[s+]3[O-])cc2)ccn1 (stereo partly drawn) [Example 135, 3-hydroxy-5-(4-(((R)-4-((2-methylpyridin-4-yl)oxy)-2,3-dihydro-1H-inden-1-yl)oxy)phenyl)isothiazole 1-oxide]"
18,< 0.3,"CS(=O)(=O)c1ccccc1-c1cccc2c1CC[C@H]2Oc1ccc(-c2cc(O)n[s+]2[O-])cc1 (stereo partly drawn) [Example 70, 5-(4-(((R)-4-(2-(methylsulfonyl)phenyl)-2,3-dihydro-1H-inden-1-yl)oxy)phenyl)-3-hydroxyisothiazole 1-oxide]"
19,< 0.3,"CS(=O)(=O)CCCOc1ccc(Oc2cccc3c2CC[C@H]3Oc2ccc(-c3cc(O)n[s+]3[O-])cc2)cc1 (stereo partly drawn) [Example 115, 3-hydroxy-5-(4-(((R)-4-(4-(3-(methylsulfonyl)propoxy)phenoxy)-2,3-dihydro-1H-inden-1-yl)oxy)phenyl)isothiazole 1-oxide]"
20,0.3 to 3,"[O-][s+]1nc(O)cc1-c1ccc(O[C@@H]2CCc3c(-c4ccc(OCc5ccccc5)c(F)c4)cccc32)cc1 (stereo partly drawn) [Example 57, 5-(4-(((R)-4-(4-benzyloxy-3-fluorophenyl)-2,3-dihydro-1H-inden-1-yl)oxy)phenyl)-3-hydroxyisothiazole 1-oxide]"
21,< 0.3,"COc1ccc(Oc2cccc3c2OCC3Oc2ccc(-c3cc(O)n[s+]3[O-])cc2)cn1 (stereo not drawn) [Example 140, 3-hydroxy-5-(4-((7-((6-methoxypyridin-3-yl)oxy)-2,3-dihydrobenzofuran-3-yl)oxy)phenyl)isothiazole 1-oxide]"
22,< 0.3,"[O-][s+]1nc(O)cc1-c1ccc(O[C@@H]2CCc3c(-c4ccccc4Cl)cccc32)cc1 (stereo partly drawn) [Example 10, 5-(4-(((R)-4-(2-chlorophenyl)-2,3-dihydro-1H-inden-1-yl)oxy)phenyl)-3-hydroxyisothiazole 1-oxide]"
23,< 0.3,"[O-][s+]1nc(O)cc1-c1ccc(O[C@@H]2CCc3c(Oc4cccc(C(F)(F)F)c4)cccc32)cc1 (stereo partly drawn) [Example 84, 3-hydroxy-5-(4-(((R)-4-(3-(trifluoromethyl)phenoxy)-2,3-dihydro-1H-inden-1-yl)oxy)phenyl)isothiazole 1-oxide]"
24,< 0.3,"[O-][s+]1nc(O)cc1-c1ccc(OCc2ccc(Oc3ccccc3)cc2)cc1 (stereo not drawn) [Example 159, 3-hydroxy-5-(4-((4-phenoxybenzyl)oxy)phenyl)isothiazole 1-oxide]"
25,< 0.3,"[O-][s+]1nc(O)cc1-c1ccc(O[C@@H]2CCc3c(Oc4ccc(CCO)cc4)cccc32)cc1 (stereo partly drawn) [Example 88, 3-hydroxy-5-(4-(((R)-4-(4-(2-hydroxyethyl)phenoxy)-2,3-dihydro-1H-inden-1-yl)oxy)phenyl)isothiazole 1-oxide]"
26,0.3 to 3,"N#Cc1ccc(-c2cccc3c2CC[C@H]3Oc2ccc(-c3cc(O)n[s+]3[O-])cc2)cn1 (stereo partly drawn) [Example 157, 5-((1R)-1-(4-(3-hydroxy-1-oxidoisothiazol-5-yl)phenoxy)-2,3-dihydro-1H-inden-4-yl)picolinonitrile]"
27,< 0.3,"[O-][s+]1nc(O)cc1-c1ccc(O[C@@H]2CCc3c(Oc4cccc(OC(F)(F)F)c4)cccc32)cc1 (stereo partly drawn) [Example 99, 3-hydroxy-5-(4-(((R)-4-(3-(trifluoromethoxy)phenoxy)-2,3-dihydro-1H-inden-1-yl)oxy)phenyl)isothiazole 1-oxide]"
28,0.3 to 3,"[O-][s+]1nc(O)cc1-c1cccc(OCCc2cccc(Oc3ccccc3)c2)c1 (stereo not drawn) [Example 163, 3-hydroxy-5-(3-(3-phenoxyphenethoxy)phenyl)isothiazole 1-oxide]"

row,Structure (SMILES),EC50 [µM]
1,"Cc1nc(OCCC(C)(C)O)ccc1Oc1cccc2c1OCC2Oc1ccc(-c2cc(O)n[s+]2[O-])cc1 (stereo not drawn) [Example 141, 3-hydroxy-5-(4-((7-((6-(3-hydroxy-3-methylbutoxy)-2-methylpyridin-3-yl)oxy)-2,3-dihydrobenzofuran-3-yl)oxy)phenyl)isothiazole 1-oxide]",< 0.3
2,"CC(C)(O)CCOc1cccc(Oc2cccc3c2CC[C@H]3Oc2ccc(-c3cc(O)n[s+]3[O-])cc2)c1 (stereo partly drawn) [Example 112, 3-hydroxy-5-(4-(((R)-4-(3-(3-hydroxy-3-methylbutoxy)phenoxy)-2,3-dihydro-1H-inden-1-yl)oxy)phenyl)isothiazole 1-oxide]",< 0.3
3,"Cc1nc(OCCC(C)(C)O)ccc1Oc1cccc2c1CC[C@H]2Oc1ccc(-c2cc(O)n[s+]2[O-])cc1 (stereo partly drawn) [Example 101, 3-hydroxy-5-(4-(((R)-4-((6-(3-hydroxy-3-methylbutoxy)-2-methylpyridin-3-yl)oxy)-2,3-dihydro-1H-inden-1-yl)oxy)phenyl)isothiazole 1-oxide]",< 0.3
4,"CN1CC2(CCN(Cc3ccc(COc4ccc(-c5cc(O)n[s+]5[O-])cc4)cc3)CC2)c2ccccc21 (stereo not drawn) [Example 124, 3-hydroxy-5-(4-((4-((1-methylspiro[indolin-3,4′-piperidin]-1′-yl)methyl)benzyl)oxy)phenyl)isothiazole 1-oxide]",0.3 to 3
5,"Cc1cc(OCCC(C)(C)O)cc(C)c1-c1cccc2c1OCC2Oc1ccc(-c2cc(O)n[s+]2[O-])cc1 (single isomer, unassigned) [Example 148-b, 3-hydroxy-5-(4-((7-(4-(3-hydroxy-3-methylbutoxy)-2,6-dimethylphenyl)-2,3-dihydrobenzofuran-3-yl)oxy)phenyl)isothiazole 1-oxide]",0.3 to 3
